This is an account of results in PubChem BioAssay AID1625 (Sanford-Burnham Center for Chemical Genomics, 2009).

pEC50: −log10 of the molar value. Activity calls are given as the source filed them.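 The calls were made as follows: active = z-score above 3 at 5 µM with at least 500 cells counted in the well; inconclusive = wells under 500 cells, flagged as cytotoxic or low count; inactive = the rest.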

The subject of the experiment is MIN6 insulin promoter-GFP reporter, high-content imaging. The experiment in a line: insulin promoter activators in MIN6 cells, imaging, high-content screening, mouse beta cells (AID 1625).
With `CC(C)N1CCc2c(sc(NC(=O)c3ccc(S(=O)(=O)N4CCc5ccccc54)cc3)c2C(N)=O)C1`, the EC50 was > 16 µM (inactive).
Regarding `O=c1oc2c3c4c(cc2c(C(F)(F)F)c1CCN1CCOCC1)CCCN4CCC3`, the pEC50 is 5.22.
Turning to `O=C(O)c1ccccc1N/N=C/c1c(Sc2nnnn2-c2ccccc2)nc2ccccn2c1=O`, the pEC50 is 5.22.
As for `COc1ccc2c(c1)NC(c1ccc(N(C)C)cc1)c1cccn1-2` (stereo unspecified), the EC50 is > 16 µM (inactive).
In the case of `CCCN(CCC)c1ccc(/C=C/c2ccc3cc(OCC)ccc3n2)cc1`, the EC50 was > 16 µM (inactive).
Take `Cc1ccc(CN=Cc2[nH]c3ccc(Br)c(Cl)c3c2O)cc1`: the EC50 was > 16 µM (inactive).
Consider `CCN(CC)c1ccc(/C=C(/C#N)C(=O)NC(C)C)o1`, for which the EC50 is > 16 µM (inactive).
For `Cn1c(=O)c(N)c2c3c(c(Br)ccc31)C(=O)c1ccccc1-2`, the pEC50 was 5.05.
Take `CN1C=CC2=C(C#N)C(N)C(C#N)(C#N)C(c3ccccc3)C2C1` (stereo unspecified): the pEC50 is 5.13.
As for `Cc1ccc(CNc2ccc3c(c2)OCO3)cc1`, the EC50 was > 16 µM (inactive).
For `CC(=O)C1=C(C)NC(SCC(=O)c2ccc(Cl)c(Cl)c2)=C(C#N)C1c1ccco1` (stereo unspecified), the EC50 was > 16 µM (inactive).
On to `COCCNC(=S)N/N=C/c1ccc(-c2ccc([N+](=O)[O-])cc2)o1`, for which the EC50 was > 16 µM (inactive).
On to `O=[N+]([O-])c1ccc(N/N=C/c2ccc[nH]2)cc1`, for which the EC50 is > 16 µM (inactive).
Take `Cc1cccn2c(=O)c(/C=C3\SC(=S)NC3=O)c(NCCCN3CCOCC3)nc12`: the EC50 is 12.2 µM (inactive).
With `O=S(=O)([O-])CCC[n+]1c(/C=C\Nc2ccccc2)oc2ccc(-c3ccccc3)cc21`, the pEC50 is 5.48.
Turning to `CCCOc1cc(N(CC)CC)ccc1/C=C(/C#N)c1nc2ccc(C)cc2[nH]1`, the pEC50 was 5.00.
Take `N#C/C(=C\c1ccc(N2CCOCC2)o1)c1ccccc1`: the EC50 is > 16 µM (inactive).
In the case of `O=[N+]([O-])c1ccc(-c2ccc(/C=N/Nc3nc(NCc4ccccc4)nc(N4CCOCC4)n3)o2)cc1`, the EC50 was > 16 µM (inactive).
Consider `COc1ccc(-c2ccc3c(N)c(C(=O)c4cccc(OC)c4)sc3n2)cc1`, for which the EC50 was > 16 µM (inactive).
Still for that read-out and setting: as for `CC(C)(C)NC(=S)N/N=C\c1ccc(-c2ccc([N+](=O)[O-])cc2)o1`, the figure is 14.3 µM (inactive).
In the case of `CCN(CC)c1ccc(/C=N/c2sc3c(c2C#N)C2CCN3CC2)c(O)c1`, the pEC50 was 5.55.
The same measure, in the same setting: then `CCOC(=O)/C(=C\C=C1/Sc2cc(OCC)c(OCC)cc2N1CC)C(C)=O`, with 5.17.
Consider `N#Cc1cccc(NC(=O)CSc2ccc3c4c(cccc24)C(=O)c2ccccc2-3)c1`, for which the EC50 is 14.7 µM (inactive).
Consider `COc1ccccc1NS(=O)(=O)c1cc([N+](=O)[O-])ccc1N/N=C/c1sc(N2CCOCC2)nc1-c1ccccc1`, for which the pEC50 was 5.74.
In the case of `CCN(CC)c1ccc2cc(-c3nc(-c4ccc(OC)cc4)cs3)c(=O)oc2c1`, the negative logarithm of the EC50 (pEC50) was over 6.60.
Regarding `CN(C)c1ccc(/C=C2\SC(=O)N(CC(O)Cn3c4ccccc4c4ccccc43)C2=O)cc1` (stereo unspecified), the EC50 was > 16 µM (inactive).
Consider `CCN(CC)c1ccc2cc(-c3nc4ccccc4[nH]3)c(=O)oc2c1`, for which the pEC50 was 6.55.
`Cc1[nH]c2ccccc2c1/C=N/Nc1ccc([N+](=O)[O-])cc1S(=O)(=O)Nc1ccc(Cl)cc1`: the EC50 is > 16 µM (inactive).
On to `O=C(/C=C/c1ccc(N2CCC(c3ccccc3)=N2)cc1)c1ccccc1`, for which the pEC50 was 5.59.
As to `CCOC(=O)CC1C(=O)NCCN1c1nc2c(C)cccn2c(=O)c1/C=C1\SC(=S)N(C(C)CC)C1=O` (stereo unspecified), the pEC50 was 5.14.
With `CN1/C(=C\C=C2C(=O)NC(=S)NC2=O)C(C)(C)c2ccccc21`, the pEC50 was 5.41.
In the case of `N#Cc1c(C(F)(F)F)cc(-c2ccccc2)nc1SCc1nc(N)nc(N2CCOCC2)n1`, the pEC50 is 5.43.
With `CCN(CC)c1ccc2cc(/C(N)=N/NC(=O)c3cccs3)c(=O)oc2c1`, the EC50 is 13.8 µM (inactive).
As for `CCCCN1C(=O)/C(=C/C=C2/CC(C)(C)CN2C)SC1=S`, the pEC50 is 5.17.
`CNC(=O)c1c(NC(=O)c2ccc(S(=O)(=O)N3CCCc4ccccc43)cc2)sc2c1CCN(C)C2`: the EC50 is > 16 µM (inactive).
As for `N#C/C(=C\N1CCN(Cc2ccc3c(c2)OCO3)CC1)c1nc2ccccc2s1`, the EC50 is > 16 µM (inactive).
`N#Cc1c(NC(=S)NC(=O)c2ccccc2)sc2c1CCN(CCc1ccccc1)C2`: the pEC50 is 5.15.
Turning to `C=CCN1C(=O)/C(=C\C=C2\N(C)c3ccccc3C2(C)C)SC1=S`, the EC50 was > 16 µM (inactive).
For the compound `O=[N+]([O-])c1ccc(N/N=C/c2cn(Cc3ccc(F)cc3)c3ccccc23)nc1`, the EC50 was > 16 µM (inactive).
The same measure, in the same setting: as for `CCCN1C(=O)/C(=C/C=C2\N(CC)c3ccccc3C2(C)C)SC1=S`, the figure is > 16 µM (inactive); as for `N#C/C(=C/c1ccc(N2CCCCCC2)o1)c1ccc(Cl)cc1`, 10.1 µM (inactive).
For the compound `CN(C)c1ccc(/C=C2\SC(=S)N(Nc3ncc(C(F)(F)F)cc3Cl)C2=O)cc1`, the negative logarithm of the EC50 (pEC50) is 5.59.
For the compound `Oc1c(C=NCc2ccc(F)cc2)[nH]c2ccc(Br)c(Cl)c12`, the EC50 was > 16 µM (inactive).
As for `CN(C)c1ccc(/C=C/C(O)=C2/C(=O)N(C)C3(C)CC2c2ccccc2O3)cc1` (stereo unspecified), the EC50 was > 16 µM (inactive).
Take `COc1cc2c3nnc(-c4ccc(F)cc4)c-3cn(Cc3ccccc3)c2cc1OC`: the pEC50 is 5.54.
Regarding `COc1cc(N2CCCC2)c(OC)cc1/C=C(/C#N)c1cccc(F)c1`, the EC50 is > 16 µM (inactive).
Regarding `C(=C/c1nccc2c1[nH]c1ccccc12)/c1ccc2c(c1)OCO2`, the EC50 is 11.9 µM (inactive).
On to `Cc1oc(C)c2c(=O)ccc3c(c12)OC(N)=C(C#N)C3c1ccccc1Cl` (stereo unspecified), for which the EC50 is 11.4 µM (inactive).
Regarding `COc1cc(N2CCCC2)c(OC)cc1/C=C1/NC(=S)NC1=O`, the pEC50 was 5.33.
On the same count and under the same terms, as for `Cc1cc(N2CCCC2)ccc1/C=C1\NC(=S)N(C)C1=O`, the figure is 5.01.
For the compound `CC1CCCCC1NC(=O)COC(=O)c1c2c(nc3ccccc13)/C(=C/c1ccco1)CC2` (stereo unspecified), the EC50 is > 16 µM (inactive).
As for `CC(=O)c1cc(NC(=O)c2ccc(Cl)cc2)c(=O)oc1/C=C/N(C)C`, the EC50 is > 16 µM (inactive).
Regarding `Cc1cc2nc3c(=O)n(C4CCCCC4)c(=O)[nH]c3nc2cc1N`, the pEC50 was 5.06.
For the compound `O=C(/C=C/c1cn(CC(O)CN2CCCCCC2)c2ccccc12)c1cccs1` (stereo unspecified), the EC50 is > 16 µM (inactive).
Turning to `CCOC(=O)c1nn(-c2ccc(Cl)cc2Cl)c(=N)c(C#N)c1C`, the pEC50 was 5.14.
On to `Nc1c(C(=O)c2cccs2)sc2nsc(SCCN3CCCCC3)c12`, for which the pEC50 was 5.02.
For `COc1ccc2c(C)cc(SCC(=O)N(C)C3CCS(=O)(=O)C3)nc2c1` (stereo unspecified), the EC50 is > 16 µM (inactive).
Same read-out and setting: as for `O=C(/C=C/c1c[nH]c2ccccc12)c1c(O)n(CCc2ccccc2)c(=O)[nH]c1=O`, the figure is > 16 µM (inactive); as for `CCN(CC)c1ccc2cc(C(=O)Nc3ccccn3)c(=O)oc2c1`, > 16 µM (inactive).
Turning to `COc1ccc2nc(SCC(C)=O)c(C#N)cc2c1`, the pEC50 was 5.09.
Consider `CN1CC=C2C(C#N)=C(N)C(C#N)(C#N)[C@H](c3ccoc3)[C@H]2C1`, for which the EC50 is 11.2 µM (inactive).
Regarding `CN1C2CCC1/C(=C/c1cccn1C)C(=O)/C2=C\c1cccn1C`, the EC50 is > 16 µM (inactive).
On to `COc1ccc2c(n1)Sc1nc3ccccc3nc1N2`, for which the EC50 was > 16 µM (inactive).
Take `CCCN1C=CC(=C/C=C(\C#N)C(=O)OCC)C=C1`: the EC50 was > 16 µM (inactive).
With `N#C/C(=C/c1ccc(N2CCOCC2)o1)C(=O)Nc1ccccc1`, the pEC50 is 5.01.
`C=CCN1C=CC(=CC=C(C#N)C#N)C=C1`: the EC50 is 10.4 µM (inactive).
With `CN1/C(=C\C=C2/SC(=S)NC2=O)C(C)(C)c2ccccc21`, the negative-log EC50 (pEC50) is 5.03.
On to `C=CCN1C(=O)c2cccc3c(N4CCCCC4)ccc(c23)C1=O`, for which the pEC50 was 5.27.
For the compound `O=c1c(Cl)c2oc3ccccc3nc-2c2ccccc12`, the EC50 was > 16 µM (inactive).
The same measure, in the same setting: as for `O=[N+]([O-])c1ccc(N2N=C(c3ccco3)CC2c2ccccc2)cc1` (stereo unspecified), the figure is > 16 µM (inactive); as for `CCCN1C(=O)/C(=C/c2c(N3CCNC(=O)C3CC(=O)OCC)nc3c(C)cccn3c2=O)SC1=S` (stereo unspecified), > 16 µM (inactive).
As to `Nc1c(C(=O)N/N=C/c2cccnc2)oc2nc(-c3ccccc3)cc(-c3ccco3)c12`, the EC50 was > 16 µM (inactive).
On to `CN1/C(=C\C=C(/C#N)C(=O)Nc2ccc(Cl)cc2)C(C)(C)c2ccccc21`, for which the EC50 is > 16 µM (inactive).
As to `COc1ccc(CN2C(=O)/C(=C/c3ccc(-c4ccc(Cl)c(C(=O)O)c4)o3)SC2=S)cc1`, the EC50 is 15.4 µM (inactive).
In the case of `Cn1cc(/C=C2\SC(=S)N(NC(=O)c3ccccc3Cl)C2=O)c2ccccc21`, the EC50 was > 16 µM (inactive).
Consider `CCCN1C=CC(=CC=C(C#N)C#N)C=C1`, for which the EC50 is 10.4 µM (inactive).
Same read-out and setting: as for `CN(C)c1ccc(/C=C2\N=C(c3ccc(Cl)c([N+](=O)[O-])c3)NC2=O)cc1`, the figure is > 16 µM (inactive); as for `CCCCOc1ccc(-c2cc(C(F)(F)F)c(C#N)c(SCC(=O)O)n2)cc1`, > 16 µM (inactive); as for `O=[N+]([O-])c1ccc(/C=C/C2=NN(c3ccccc3)C(c3ccco3)C2)o1` (stereo unspecified), > 16 µM (inactive).
With `CCOCCCNc1nc2c(C)cccn2c(=O)c1/C=C1\SC(=S)N(C(C)CC)C1=O` (stereo unspecified), the pEC50 is 5.39.
Consider `Nc1c(C(=O)Nc2nc3ccccc3s2)sc2nc(-c3cccs3)ccc12`, for which the EC50 is 12.8 µM (inactive).
Consider `CCCCNc1ccc2c3c(cccc13)C(=O)N(CCCC)C2=O`, for which the negative logarithm of the EC50 (pEC50) was 5.77.
With `CCc1cccc2cc3c(N)c(C(=O)Nc4ccc(S(=O)(=O)N5CCCC5)cc4)sc3nc12`, the EC50 is 10.2 µM (inactive).
Consider `Nc1c(C(=O)N/N=C/c2ccccc2Cl)oc2nc(-c3ccccc3)cc(-c3ccco3)c12`, for which the EC50 was > 16 µM (inactive).
Still for that read-out and setting: as for `CC(=O)Nc1cccc(C(=O)/C=C/c2ccc(N(C)C)cc2)c1`, the figure is 12.9 µM (inactive).
Take `CCOC(=O)Cc1csc(NC(=O)c2sc3nc4c(C)cc(C)cc4cc3c2N)n1`: the EC50 was > 16 µM (inactive).
